Columns and labels:
[1] = test system: Penicillium expansum strain PE110014, pyrimethanil-resistant; assay: Poison plate assay on glucose agar, strain PE110014; format: cell-based
Procedure: (§1) • Name of component (I): pyrimethanil • Name of component (II): hexanoic acid (=CH3—(CH2)n—COOH wherein n is 4) • Test setup: to each well of a 24-well microtiter plate, 2 ml of Glucose Agar (GA: 10 g glucose, 1.5 g K2HPO4, 2 g KH2PO4, 1 g (NH4)2SO4, 0.5 g MgSO4 and 12.5 g agar in 1 litre deionised water) is added. The test compounds pyrimethanil as well as an alkane carboxylic acid (II) are dissolved in DMSO at the appropriate concentration and added to the liquid agar in a 5 μl droplet each. The nutrient medium is inoculated with the test fungi by adding 2.5 µl of a spore/mycelium suspension. The microwell plates are then incubated in the dark at 20° C. and 60% relative humidity. The growth of the fungi is evaluated after two weeks, when the growth diameter of untreated controls has reached 15 mm.
(§2) After a suitable incubation period, colony diameters on the agar are measured. Percentage growth (not % effect, see below) is then calculated for each treatment by comparing the colony diameter with the diameter for untreated controls (which is 15 mm).
(§3) The effect of adding an alkane carboxylic acid of formula CH3—(CH2)n—COOH (wherein n is 4 to 7) to restore sensitivity of pyrimethanil-resistant or pyrimethanil-tolerant fungi to pyrimethanil was calculated using the Colby synergy formula (Colby S. R., Weeds (1967), 15(1), 20-22).
(§4) When a is the % growth (not the % activity) still observed under treatment with compound A alone at a given concentration and b is the % growth still observed under treatment with compound B alone at a given concentration, the expected growth exp under treatment with the combination of both compounds at the same concentrations is:
(§5) When the observed growth of the test pathogens under the combination is less than the expected growth, there is synergy.

[2] = test system: Penicillium expansum strain PE110030, pyrimethanil-resistant; assay: Poison plate assay on glucose agar, strain PE110030; format: cell-based
Procedure: as §1, §2, §3, §4, §5

[3] = test system: Penicillium expansum strain PE110048, pyrimethanil-resistant; assay: Poison plate assay on glucose agar, strain PE110048; format: cell-based
Procedure: as §1, §2, §3, §4, §5

[4] = test system: Penicillium expansum PE110091 (pyrimethanil-tolerant); assay: Treatment of fruit (curative dip, Bio-apple Elstar); format: in vivo; details: for % effect after 6 days (observed) / % effect after 9 days (observed): apple Elstar, curative
Procedure: untreated apples or pears (details below), inoculated with fungal pathogens by wounding the fruits with a contaminated pricker on two spots, and incubated at 20° C. and 96% relative humidity.
Curative: fruits are first infected with a pricker and treated by dipping four hours later.
After a suitable incubation period, the diameters of the infected spots are measured with a calliper. The average diameter is calculated for all spots in the same treatment (between 14 and 40 spots per treatment, see below). Percentage effect of the treatment is then calculated by comparing the average spot diameter with the average for untreated controls.
The effect of adding an alkane carboxylic acid of formula CH3—(CH2)n—COOH (wherein n is 4 to 7) to restore sensitivity of pyrimethanil-resistant or pyrimethanil-tolerant fungi to pyrimethanil was calculated using the Limpel synergy formula (Limpel, L. E. et al. (1962) “Weed control by dimethyl tetrachloroterephthalate alone and in certain combinations”, Proceedings of the N. E. Weed Control Conference 16: 48-53). When a is the % effect obtained by compound A alone at a given concentration and b is the % effect obtained by compound B alone at a given concentration, the expected effect e of the combination of both compounds at the same concentrations is:
Pyrimethanil was added to tap water as a 40% commercially available PENBOTEC 400SC formulation to obtain a concentration of 100 ppm pyrimethanil. The alkanoic acid was added to tap water to obtain a 2000 ppm solution, or the alkanoic acid was added to the pyrimethanil composition with a concentration of 2000 ppm.
Fruit: Bio-apple “Elstar”
Pathogen: Penicillium expansum PE110091 (pyrimethanil-tolerant)
Repeats: Two wounds per fruit, 15 fruits per treatment
Evaluations: 17 March (6 days), 20 March (9 days) Average rot diameter untreated: 6 days: 21.3 mm 9 days: 36.0 mm

[5] = test system: Penicillium expansum strain PE110014; assay: Pyrimethanil sensitivity of strain PE110014; format: cell-based; details: strain PE110014, pyrimethanil-resistant
[6] = test system: Penicillium expansum strain PE110030; assay: Pyrimethanil sensitivity of strain PE110030; format: cell-based; details: strain PE110030, pyrimethanil-resistant
[7] = test system: Penicillium expansum strain PE110048; assay: Pyrimethanil sensitivity of strain PE110048; format: cell-based; details: strain PE110048, pyrimethanil-resistant
[8] = test system: Penicillium expansum PE110101; assay: Pyrimethanil sensitivity of strain PE110101; format: cell-based; details: strain PE110101, pyrimethanil-sensitive
[9] = test system: Penicillium expansum PE110091; assay: Pyrimethanil sensitivity of strain PE110091; format: cell-based; details: strain PE110091, pyrimethanil-tolerant
[10] = hexanoic acid alone at 250, 500 and 750 ppm
[11] = pyrimethanil 10 ppm alone, two weeks
[12] = pyrimethanil 100 ppm alone (PENBOTEC 400SC)

## CCCCCC(=O)O [hexanoic acid]
[1]; hexanoic acid 250 ppm alone
  % growth (observed): 100%
[1]; hexanoic acid 500 ppm alone
  % growth (observed): 100%
[1]; hexanoic acid 750 ppm alone
  % growth (observed): 100%
[1]; [10]
  fungicidal effect (in words): no fungicidal effect
[2]; hexanoic acid 250 ppm alone
  % growth (observed): 100%
[2]; hexanoic acid 500 ppm alone
  % growth (observed): 100%
[2]; hexanoic acid 750 ppm alone
  % growth (observed): 100%
[2]; [10]
  fungicidal effect (in words): no fungicidal effect
[3]; hexanoic acid 250 ppm alone
  % growth (observed): 100%
[3]; hexanoic acid 500 ppm alone
  % growth (observed): 100%
[3]; hexanoic acid 750 ppm alone
  % growth (observed): 100%
[3]; [10]
  fungicidal effect (in words): no fungicidal effect
[4]; PE110091 on apple, hexanoic acid alone at 2000 ppm
  fungicidal effect (in words): little fungicidal effect
[4]; hexanoic acid 2000 ppm alone
  % effect after 6 days (observed): 15%
  % effect after 9 days (observed): 6%

## Cc1cc(C)nc(Nc2ccccc2)n1 [pyrimethanil, 4,6-dimethyl-N-phenyl-2-pyrimidinamine]
[1]; [11]
  % growth (observed): 67%
[2]; [11]
  % growth (observed): 80%
[3]; [11]
  % growth (observed): 53%
[4]; [12]
  % effect after 6 days (observed): 19%
  % effect after 9 days (observed): 12%
[5]
  EC50: 15.40 ppm
  EC95: > 100 ppm
[6]
  EC50: 16.38 ppm
  EC95: > 100 ppm
[7]
  EC50: 22.39 ppm
  EC95: > 100 ppm
[8]
  EC50: 0.29 ppm
  EC95: 0.88 ppm
[9]
  EC50: 5.01 ppm
  EC95: 74.99 ppm

Source: US20190069552A1, “METHOD TO CONTROL PYRIMETHANIL TOLERANT FUNGI” (Janssen Pharmaceutica NV, priority 2016, published 2019)
